The record followed here is patent US20130213851A1, “OMEGA 3 FATTY ACID FORMULATIONS” (CENESTRA LLC., priority 2005, published 2013).

The test system of this data set is Attention Deficit Hyperactivity Disorder (ADHD)-combined type, and Tic Disorder. The experiment in a line: Case report: cognition, attention and tics after OMAX3 augmentation. Particulars: for treatment response of tics: past use. Format: in vivo, human. As for the experimental part: […] […] Past medication trials included: Strattera (atomoextine), Adderall, Adderall XR, methylphenidate, Tenex (guanfacine), and Concerta. His most recent medication treatment was with Concerta 54 mg per day.
R's Tic Disorder was comprised of both vocal and motor tics in the form of random verbalizations or screeching sounds, as well as either a facial and neck twitch.
The patient was treated with OMAX3, 2 capsules per day (1125 mg EPA, 275 mg DHA, 1500 mg Total Omega-3 fatty acids) for the purpose of enhancing their attention and cognitive function.

Take `N=C(N)NC(=O)Cc1c(Cl)cccc1Cl` [Tenex, guanfacine]: the tolerability result (past use for tics, patient history) is “poor tolerability”. Besides, the “treatment response of tics” value (patient history) is given as “only a partial treatment response”.

In the case of `COC(=O)C(c1ccccc1)C1CCCCN1` (stereo not shown) [Concerta], the inattention symptoms entry (patient's report at baseline, Concerta 54 mg per day, before OMAX3) is listed as “sufficiently improved”.

In the case of `Cc1nc2n(c(=O)c1CCN1CCC(c3noc4cc(F)ccc34)CC1)CCCC2` [Risperdal, risperidone], under “patient history”, the “treatment response of tics” value is given as “only a partial treatment response”.
